Each block holds one compound with its values, some of them ahead of it. The source made the active and inactive calls.
How the values were obtained:
[1] = target: Eukaryotic translation initiation factor 4E (Mus musculus, UniProt P63073); test: blockers of eIF4G binding by eIF4E – biochemical, TR-FRET, dose response (AID 855); assay type: functional;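 note: potency for disrupting eIF4E binding to eIF4GI seen as loss of FRET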
[2] = target: DNA dC->dU-editing enzyme APOBEC-3A (Homo sapiens, UniProt P31941); test: Dose Response confirmation of small molecule APOBEC3A DNA Deaminase Inhibitors via a fluorescence-based single-stranded DNA deaminase assay. [Related pubchem assays (depositor defined):AID493011, AID493024]; assay type: functional
[3] = target: DNA dC->dU-editing enzyme APOBEC-3G (Homo sapiens, UniProt Q9HC16); assay type: functional;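 note: Dose-response counterscreen measuring inhibition of APOBEC3G DNA deaminase activity, run while confirming APOBEC3A inhibitors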
[4] = target: T1, Carboxy-terminal domain RNA polymerase II polypeptide A small phosphatase 1 (Homo sapiens, UniProt Q9GZU7); test: CTDSP1 inhibitors, concentration-response, biochemical, absorbance readout, ultra-high-throughput screen actives (AID 540297); assay type: functional
T1 sequence (Q9GZU7 whole entry): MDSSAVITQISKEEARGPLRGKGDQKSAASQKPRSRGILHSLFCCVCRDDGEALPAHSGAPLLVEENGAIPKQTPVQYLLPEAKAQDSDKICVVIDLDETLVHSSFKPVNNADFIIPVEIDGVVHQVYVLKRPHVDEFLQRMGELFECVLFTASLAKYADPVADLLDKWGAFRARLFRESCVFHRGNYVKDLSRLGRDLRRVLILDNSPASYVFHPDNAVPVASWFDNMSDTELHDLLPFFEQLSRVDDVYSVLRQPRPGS

HEK293 [5] = test: inhibition of NOD1-driven NF-kB reporter – cell-based, luminescence, uHTS, primary screen (AID 1578); assay type: functional; details: Homo sapiens
HEK293 [6] = test: cells; assay type: functional, cell-based; details: Homo sapiens
HEK293 [7] = test: cells; assay type: functional, cell-based; details: Homo sapiens; remark: listed apart in the source
HEK293 [8] = test: NOD2 signaling inhibitors in MDP-stimulated cells, cell-based, uHTS, luminescence (AID 2001); assay type: functional; details: Homo sapiens
Leucine aminopeptidase = target: T2, Leucine aminopeptidase (Plasmodium falciparum 3D7, UniProt Q8IL11); test: P. falciparum M17LAP inhibitors, primary screen, biochemical, fluorogenic H-Leu-NHMec substrate, 1536-well (AID 1619); assay type: functional
T2 sequence (Q8IL11 whole entry): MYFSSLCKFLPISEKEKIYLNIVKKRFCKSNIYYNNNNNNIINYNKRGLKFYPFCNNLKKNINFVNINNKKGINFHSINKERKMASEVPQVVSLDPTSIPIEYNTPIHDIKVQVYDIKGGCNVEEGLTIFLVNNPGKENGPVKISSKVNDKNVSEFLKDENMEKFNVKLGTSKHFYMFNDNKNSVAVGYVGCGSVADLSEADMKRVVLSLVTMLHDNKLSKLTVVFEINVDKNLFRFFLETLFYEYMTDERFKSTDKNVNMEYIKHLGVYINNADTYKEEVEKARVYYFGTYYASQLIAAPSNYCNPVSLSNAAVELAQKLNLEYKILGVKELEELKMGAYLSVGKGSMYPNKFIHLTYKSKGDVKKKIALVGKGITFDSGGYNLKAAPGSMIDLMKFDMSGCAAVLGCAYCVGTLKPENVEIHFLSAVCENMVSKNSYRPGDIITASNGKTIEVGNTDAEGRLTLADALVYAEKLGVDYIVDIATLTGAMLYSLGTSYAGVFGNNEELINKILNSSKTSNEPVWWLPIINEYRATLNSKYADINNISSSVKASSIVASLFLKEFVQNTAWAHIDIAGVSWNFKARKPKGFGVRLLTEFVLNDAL

[9] = target: Glyceraldehyde-3-phosphate dehydrogenase (Homo sapiens, UniProt P04406)
[10] = blockers of HIV-1 envelope-mediated cell-cell fusion – cherry-pick, dose response (AID 652057); assay type: functional, cell-based
[11] = blockers of HIV-1 ZM109 envelope-driven cell-cell fusion – HeLa effector, CEM target cells, luciferase, cherry-pick, dose response (AID 652058); assay type: functional, cell-based;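 note: luciferase signal from HIV-1 Env mediated cell-cell fusion of effector and target cells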
[12] = off-target signal loss in HeLa-CEM21 co-culture – HeLa F-luc CTL cells, cherry-picked, counter-screen for HIV-1 Env fusion inhibitor project, dose response (AID 652040); assay type: functional, cell-based;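 note: potency for signal decrease marking cytotoxic or nonspecific inhibition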
[13] = HIV-1 AD8 envelope cell-cell fusion blockers – cherry-pick, dose response (AID 652062); assay type: functional, cell-based;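 note: luciferase signal from cell-cell fusion driven by HIV-1 clade B AD8 Env; potency is for inhibitors of fusion seen as a drop in luminescence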
[14] = reduction of Shn3 3'UTR-driven luciferase in osteoblasts – cell-based, Clone20 osteoblasts, firefly luciferase, cherry-picked, dose response (AID 624132); assay type: functional;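 note: firefly luciferase luminescence from reporter carrying the Shn3 3'UTR in osteoblasts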
[15] = loss of viability in HepG2 cells – cell-based, CellTiter-Glo, cherry-picked, cytotoxicity control for Shn3 inhibitor project, dose response (AID 624134); assay type: functional
[16] = non-specific 3'UTR reporter inhibition in Clone20-Shn3RL – cell-based, Renilla luciferase, cherry-picked, counter-screen for Shn3 inhibitor project, dose response (AID 624133); assay type: functional

Sequence of DNA dC->dU-editing enzyme APOBEC-3A (P31941 whole entry): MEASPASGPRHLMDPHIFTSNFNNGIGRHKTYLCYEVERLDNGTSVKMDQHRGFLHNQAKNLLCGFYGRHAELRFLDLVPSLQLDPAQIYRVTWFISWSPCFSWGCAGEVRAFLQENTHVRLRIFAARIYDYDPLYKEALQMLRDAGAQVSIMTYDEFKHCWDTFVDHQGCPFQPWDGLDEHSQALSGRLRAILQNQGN
Sequence of Eukaryotic translation initiation factor 4E (P63073 whole entry): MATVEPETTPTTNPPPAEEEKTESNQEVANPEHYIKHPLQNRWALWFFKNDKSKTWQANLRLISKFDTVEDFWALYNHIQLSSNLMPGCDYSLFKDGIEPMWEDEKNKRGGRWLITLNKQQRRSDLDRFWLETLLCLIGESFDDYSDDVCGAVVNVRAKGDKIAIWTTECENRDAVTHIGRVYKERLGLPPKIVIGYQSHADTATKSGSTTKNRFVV
Sequence of DNA dC->dU-editing enzyme APOBEC-3G (Q9HC16 whole entry, the tested form may be a part): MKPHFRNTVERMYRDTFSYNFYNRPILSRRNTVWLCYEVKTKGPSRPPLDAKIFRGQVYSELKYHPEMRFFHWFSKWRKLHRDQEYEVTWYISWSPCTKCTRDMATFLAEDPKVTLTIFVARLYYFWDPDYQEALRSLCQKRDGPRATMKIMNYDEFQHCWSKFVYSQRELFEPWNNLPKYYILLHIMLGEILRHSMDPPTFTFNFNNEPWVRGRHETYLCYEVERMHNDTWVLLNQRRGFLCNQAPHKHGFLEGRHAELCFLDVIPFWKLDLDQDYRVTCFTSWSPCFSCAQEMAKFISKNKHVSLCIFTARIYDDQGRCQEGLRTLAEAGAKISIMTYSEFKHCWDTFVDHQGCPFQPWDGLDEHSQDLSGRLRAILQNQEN
Sequence of Glyceraldehyde-3-phosphate dehydrogenase (P04406 whole entry, the tested form may be a part): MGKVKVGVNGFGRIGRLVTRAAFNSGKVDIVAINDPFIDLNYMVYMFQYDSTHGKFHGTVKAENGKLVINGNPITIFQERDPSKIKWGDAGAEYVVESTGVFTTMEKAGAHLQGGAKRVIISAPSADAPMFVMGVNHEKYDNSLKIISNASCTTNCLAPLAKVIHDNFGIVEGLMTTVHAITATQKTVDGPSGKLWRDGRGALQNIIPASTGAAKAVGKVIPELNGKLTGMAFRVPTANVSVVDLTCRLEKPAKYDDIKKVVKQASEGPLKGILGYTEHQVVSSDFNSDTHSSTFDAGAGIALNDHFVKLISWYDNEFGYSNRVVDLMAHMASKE

- IC50 [1]: > 64 µM (inactive)
Compound: CCn1cc(C(=O)OCC(=O)c2cc(C)n(-c3ccc(OC(F)F)cc3)c2C)c(=O)c2ccc(C)nc21

Compound: Cc1ccc(CCCOC(=O)C[N+]2(C)CCCCC2)cc1
- IC50 [2]: 2.57 µM (active)
- IC50 [3]: 2.58 µM (active)

Compound: O=[N+]([O-])c1ccc(C[n+]2cccc3ccccc32)cc1
- IC50 [2]: 3.26 µM (active)
- IC50 [3]: 5.45 µM (active)

Compound: COc1ccc(/C=C(\NC(=O)c2ccccc2)C(=O)OC[C@@H]2CCC[N+]3(C)CCCCC23)cc1OC (stereo not given in full)
- IC50 [2]: 2.2 µM (active)
- IC50 [3]: 3.58 µM (active)
- IC50 [4]: 6.62 µM (active)

- IC50 [1]: 50 µM (inactive)
Compound: CC(C)(C)NC(=O)C(=O)NN=C1CCCCCCC1

Compound: CCOc1ccc(NC(=O)c2cc3ccccc3cc2O)cc1
- IC50 [2]: 12.9 µM (active)
- IC50 [3]: 47.5 µM (active)

Compound: CCCc1nc(SCC(=O)Nc2nnc(SCC)s2)c2c(=O)n(C)c(=O)n(C)c2n1
- EC50 (HEK293 [5]): > 20 µM (inactive)
- IC50 (HEK293 [6]): 7.04 µM (active)
- IC50 (HEK293 [7]): > 20 µM (inactive)
- IC50 (HEK293 [8]): 4.78 µM (active)

- IC50 (Leucine aminopeptidase): 16.7 µM (active)
- IC50 [1]: > 64 µM (inactive)
Compound: CCc1ccc(C(=O)CSc2nnc[nH]2)cc1

- IC50 [9]: > 100 µM (not active)
Compound: Cc1nnc(SCC(=O)Nc2ccc(O)c(C(=O)O)c2)s1

- IC50 [9]: > 100 µM (not active)
Compound: O=C1C2CC=CCC2C(=O)N1c1nc(CCc2ccccc2)n[nH]1 (stereo not given)

Compound: COc1cc(NC2c3ccccc3C(=O)N2Cc2ccccc2)cc(OC)c1OC (stereo not given)
- AC50 [10]: 8.41 µM (active)
- AC50 [11]: 13.1 µM (active)
- AC50 [12]: 9.63 µM (active)
- AC50 [13]: 7.97 µM (active)

Compound: CCCOC(=O)c1[nH]c2c(c1C)C(=O)CC(c1cc(OC)c(OC)c(OC)c1)C2 (stereo not given)
- EC50 (HEK293 [5]): 2.78 µM (active)
- IC50 (HEK293 [6]): 6.21 µM (active)
- IC50 (HEK293 [7]): 16.4 µM (active)
- IC50 (HEK293 [8]): 4.9 µM (active)
- AC50 [14]: 1.92 µM (active)
- AC50 [15]: 52.9 µM (active)
- AC50 [16]: 6.82 µM (active)

— ChEMBL document CHEMBL1201862, “PubChem BioAssay data set” (2004)
